Columns and labels:
[1] = target: T1, human TLR7 (Homo sapiens, UniProt Q9NYK1); assay: TLR7 inhibition reporter assay (HEK-Blue cells, SEAP reporter, gardiquimod stimulation); type: cell-based; details: HEK-Blue cells overexpressing human TLR7, SEAP reporter, gardiquimod 7.5 μM; read-out: TLR7 IC50
T1 construct: host or cells: HEK-Blue cells
T1 sequence (Q9NYK1 27-1049): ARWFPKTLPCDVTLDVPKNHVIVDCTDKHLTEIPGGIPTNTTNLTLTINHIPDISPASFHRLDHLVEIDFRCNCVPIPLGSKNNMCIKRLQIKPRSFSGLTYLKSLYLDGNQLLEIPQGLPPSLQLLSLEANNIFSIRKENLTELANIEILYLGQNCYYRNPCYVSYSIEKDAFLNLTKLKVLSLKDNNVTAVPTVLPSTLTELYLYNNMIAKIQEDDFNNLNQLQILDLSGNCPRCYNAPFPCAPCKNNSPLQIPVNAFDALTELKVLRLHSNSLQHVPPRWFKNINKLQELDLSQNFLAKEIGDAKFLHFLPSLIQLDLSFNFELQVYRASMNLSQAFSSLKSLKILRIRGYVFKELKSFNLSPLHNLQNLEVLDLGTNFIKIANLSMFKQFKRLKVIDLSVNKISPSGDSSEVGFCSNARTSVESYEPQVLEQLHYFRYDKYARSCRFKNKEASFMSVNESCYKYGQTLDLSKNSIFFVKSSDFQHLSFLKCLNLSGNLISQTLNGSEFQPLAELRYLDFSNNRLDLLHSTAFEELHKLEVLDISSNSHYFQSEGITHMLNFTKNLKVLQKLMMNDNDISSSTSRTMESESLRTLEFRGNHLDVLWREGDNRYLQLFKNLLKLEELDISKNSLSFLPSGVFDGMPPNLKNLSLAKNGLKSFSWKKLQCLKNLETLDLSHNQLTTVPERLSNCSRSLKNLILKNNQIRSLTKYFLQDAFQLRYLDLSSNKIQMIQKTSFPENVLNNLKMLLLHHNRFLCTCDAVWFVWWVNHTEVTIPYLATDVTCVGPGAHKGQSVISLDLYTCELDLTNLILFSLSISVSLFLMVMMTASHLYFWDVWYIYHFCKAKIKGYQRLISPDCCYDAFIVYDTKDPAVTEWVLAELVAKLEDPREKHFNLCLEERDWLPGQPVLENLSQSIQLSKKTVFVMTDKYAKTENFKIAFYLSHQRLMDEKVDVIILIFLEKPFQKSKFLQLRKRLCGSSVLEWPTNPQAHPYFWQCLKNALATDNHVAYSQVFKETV
In short: (§1)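 Compound treatment: 30 min, RT, 0.05 nM–50 μM final. Agonist: TLR7 gardiquimod 7.5 μM; TLR8 R848 15.9 μM; TLR9 ODN2006 5 nM. Incubation 22 h, 37 °C, 5% CO2. Readout SEAP, HEK-Blue Detection.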

[2] = target: T2, human TLR8 (Homo sapiens, UniProt Q9NR97); assay: TLR8 inhibition reporter assay (HEK-Blue cells, SEAP reporter, R848 stimulation); type: cell-based; details: HEK-Blue cells overexpressing human TLR8, SEAP reporter, R848 15.9 μM; read-out: TLR8 IC50
T2 construct: host or cells: HEK-Blue cells
T2 sequence (Q9NR97 27-1041): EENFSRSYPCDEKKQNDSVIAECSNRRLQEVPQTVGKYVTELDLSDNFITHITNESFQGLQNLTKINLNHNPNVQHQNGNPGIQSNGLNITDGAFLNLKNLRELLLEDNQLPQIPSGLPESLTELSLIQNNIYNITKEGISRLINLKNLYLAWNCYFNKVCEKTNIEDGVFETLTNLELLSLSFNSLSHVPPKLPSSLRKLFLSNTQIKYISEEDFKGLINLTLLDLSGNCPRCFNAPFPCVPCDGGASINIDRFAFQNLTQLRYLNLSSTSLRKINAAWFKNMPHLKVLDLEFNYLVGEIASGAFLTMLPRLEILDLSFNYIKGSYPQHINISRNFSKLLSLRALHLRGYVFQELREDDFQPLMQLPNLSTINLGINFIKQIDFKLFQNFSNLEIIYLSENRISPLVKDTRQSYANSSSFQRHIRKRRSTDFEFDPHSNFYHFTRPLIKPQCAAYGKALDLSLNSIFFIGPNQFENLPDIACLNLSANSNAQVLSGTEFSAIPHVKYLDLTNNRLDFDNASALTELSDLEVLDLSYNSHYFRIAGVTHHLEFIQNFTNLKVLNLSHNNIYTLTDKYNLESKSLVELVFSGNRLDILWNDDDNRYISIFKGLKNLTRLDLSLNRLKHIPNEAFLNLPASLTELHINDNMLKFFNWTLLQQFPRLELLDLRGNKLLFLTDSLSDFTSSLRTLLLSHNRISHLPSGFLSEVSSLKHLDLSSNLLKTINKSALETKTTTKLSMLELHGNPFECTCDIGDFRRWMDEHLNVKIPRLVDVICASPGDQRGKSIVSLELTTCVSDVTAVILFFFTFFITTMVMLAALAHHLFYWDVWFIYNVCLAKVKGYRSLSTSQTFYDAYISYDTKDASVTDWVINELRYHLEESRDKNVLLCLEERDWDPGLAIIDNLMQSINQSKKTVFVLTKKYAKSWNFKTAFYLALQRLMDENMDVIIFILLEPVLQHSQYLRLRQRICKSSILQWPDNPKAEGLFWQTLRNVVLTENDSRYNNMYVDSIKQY
In short: as §1

COc1cc(-c2[nH]c3sc(C4CCC(NC5COC5)CC4)nc3c2C(C)C)cn2ncnc12 (single isomer, unassigned) [Example 65, N-(4-(6-isopropyl-5-(8-methoxy-[1,2,4]triazolo[1,5-a]pyridin-6-yl)-4H-pyrrolo[3,2-d]thiazol-2-yl)cyclohexyl)oxetan-3-amine]
IC50 [1]: 0.55 nM
IC50 [2]: 1.37 nM

From US20230139171A1 (SITA Information Networking Computing UK Limited, priority 2019, published 2023)
